Measured values from patent US9777020B2, “Furo-3-carboxamide derivatives and methods of use” (AbbVie Inc., priority 2014, dated 2017).

Biological target: TrkA (Homo sapiens (Human), UniProt P04629)
Test: TrkA kinase HTRF enzyme inhibition assay
Assay type: biochemical
Details: TrkA pre-incubated with 200 μM ATP
Procedure: TrkA enzyme was obtained from Invitrogen (as catalog numbers PV3144, PV3616, and PV3617, respectively). Enzyme activity was measured in an HTRF® (homogeneous time resolved fluorescence) assay, which detects enzymatic phosphorylation of a biotinylated synthetic peptide substrate (an LCK peptide analog, biotin-ahx-[…], from Genemed Synthesis). Phosphorylation is assessed by HTRF® in the presence of an anti-phosphotyrosine antibody conjugated to Eu^3+ cryptate (Cisbio) as donor fluorophore, and streptavidin conjugated to allophycocyanin (ProZyme) as acceptor fluorophore. The HTRF® signal was detected at two different wavelengths (620 nm and 665 nm) which were used to calculate the fluorescence ratio.
TrkA enzyme was titrated to a concentration optimized to ensure accurate measurement of the initial reaction rate. To allow the TrkA enzyme to undergo activation and auto-phosphorylation, a 20 minute pre-incubation with ATP was carried out (at twice the final targeted enzyme and ATP concentration) prior to addition of test compound and the peptide substrate.
TrkA in vitro assays were performed by pre-incubating TrkA (2-10 nM) with ATP (200 μM) for 20 minutes at ambient temperature in 50 mM HEPES pH 7.4, 10 mM MgCl2, 2 mM MnCl2, 100 μM Na3VO4, 1 mM dithiothreitol, 0.01% BSA (bovine serum albumin). Then, to the activated Trk enzyme mixture was added the test compound in 2% dimethyl sulfoxide. After 10 minutes, the peptide substrate (125 nM) was added. After 1 hour, enzyme reactions were terminated by addition of equal reaction volumes of detection/stop reagent (containing 0.2 μg/mL anti-phosphotyrosine monoclonal antibody labeled with europium from Cisbio (catalog#PT66-K), and 4 μg/mL PhycoLink® Streptavidin-Allophycocyanin conjugate from ProZyme (catalog#PJ25S) in 60 mM EDTA in 40 mM HEPES pH 7.4, 480 mM KF, 0.01% Tween® 20 and 0.1% BSA bovine serum albumin) Reaction plates were stored at 4° C. overnight before reading the fluorescence ratio signal on a PerkinElmer EnVision™ fluorescence detector. Individual reaction wells were stopped at time points to obtain reaction rates. The test inhibitor compounds were assayed in duplicate, at half-log serial dilutions over a range of concentrations (e.g. starting at 50 μM or 5 μM as the high compound concentration). The percent Trk enzyme inhibition was calculated from the initial rates of the inhibited reactions relative to the uninhibited control. IC50 values were calculated by fitting the inhibition percent to the concentration of inhibitor [I] in the assay in equation 1 below, to solve for the IC50. Inhibition %=100[I]/([I]+[IC50]) equation 1

TrkA, sequence (P04629 33-796): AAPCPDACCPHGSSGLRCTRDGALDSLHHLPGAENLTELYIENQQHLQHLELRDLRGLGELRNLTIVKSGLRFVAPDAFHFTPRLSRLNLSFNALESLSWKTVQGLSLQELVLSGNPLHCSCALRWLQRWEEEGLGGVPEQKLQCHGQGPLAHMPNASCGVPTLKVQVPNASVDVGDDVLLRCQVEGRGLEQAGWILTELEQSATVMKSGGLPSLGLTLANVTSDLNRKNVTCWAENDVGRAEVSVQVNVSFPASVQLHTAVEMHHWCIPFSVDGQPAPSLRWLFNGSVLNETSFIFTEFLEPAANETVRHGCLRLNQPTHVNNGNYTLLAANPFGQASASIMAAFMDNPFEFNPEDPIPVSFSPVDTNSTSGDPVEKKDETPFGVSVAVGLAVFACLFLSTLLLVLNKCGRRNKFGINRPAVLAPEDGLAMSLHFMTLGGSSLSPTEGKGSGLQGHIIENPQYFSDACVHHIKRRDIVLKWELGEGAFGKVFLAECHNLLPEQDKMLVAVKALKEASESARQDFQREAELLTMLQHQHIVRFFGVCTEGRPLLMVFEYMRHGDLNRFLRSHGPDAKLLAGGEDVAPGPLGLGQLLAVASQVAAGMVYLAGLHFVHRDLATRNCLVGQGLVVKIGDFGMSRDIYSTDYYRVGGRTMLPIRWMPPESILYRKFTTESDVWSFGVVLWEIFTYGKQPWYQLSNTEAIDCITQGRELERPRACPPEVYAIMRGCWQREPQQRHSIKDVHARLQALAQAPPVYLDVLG

CC1(C)CC(=O)c2c(C(=O)Nc3ccc(N4CCN(S(C)(=O)=O)CC4)cn3)coc2C1 [Example 155, 6,6-dimethyl-N-{5-[4-(methylsulfonyl)piperazin-1-yl]pyridin-2-yl}-4-oxo-4,5,6,7-tetrahydro-1-benzofuran-3-carboxamide]
IC50: 0.0548 µM

Cn1cc2cc(NC(=O)c3coc4c3C(=O)CC(C)(CO)C4)ccc2n1 (stereo not shown) [Example 164, 6-(hydroxymethyl)-6-methyl-N-(2-methyl-2H-indazol-5-yl)-4-oxo-4,5,6,7-tetrahydro-1-benzofuran-3-carboxamide]
IC50: 0.0219 µM

CN1CCc2occ(C(=O)Nc3ccc(C(F)(F)F)cn3)c2C1=O [Example 76, 5-methyl-4-oxo-N-[5-(trifluoromethyl)pyridin-2-yl]-4,5,6,7-tetrahydrofuro[3,2-c]pyridine-3-carboxamide]
IC50: 1.53 µM

CC(=O)Nc1ccc(NC(=O)c2coc3c2C(=O)N(C)CC3)cc1 [Example 60, N-(4-acetamidophenyl)-5-methyl-4-oxo-4,5,6,7-tetrahydrofuro[3,2-c]pyridine-3-carboxamide]
IC50: 2.11 µM

COc1cc(N2CCN(C(C)=O)CC2)ccc1NC(=O)c1coc2c1C(=O)NCC2 [Example 18, N-[4-(4-acetylpiperazin-1-yl)-2-methoxyphenyl]-4-oxo-4,5,6,7-tetrahydrofuro[3,2-c]pyridine-3-carboxamide]
IC50: 0.0598 µM

Cc1cc2[nH]ncc2cc1NC(=O)c1coc2c1C(=O)NCC2 [Example 46, N-(6-methyl-1H-indazol-5-yl)-4-oxo-4,5,6,7-tetrahydrofuro[3,2-c]pyridine-3-carboxamide]
IC50: 0.855 µM

CCOc1nc(N2CCN(C(C)=O)CC2)ccc1NC(=O)c1coc2c1C(=O)N([C@@H](C)COC(C)=O)CC2 [Example 100, (2S)-2-[3-{[6-(4-acetylpiperazin-1-yl)-2-ethoxypyridin-3-yl]carbamoyl}-4-oxo-6,7-dihydrofuro[3,2-c]pyridin-5(4H)-yl]propyl acetate]
IC50: 0.0235 µM

O=C(Nc1ccc(O)cc1)c1coc2c1C(=O)NCC2 [Example 31, N-(4-hydroxyphenyl)-4-oxo-4,5,6,7-tetrahydrofuro[3,2-c]pyridine-3-carboxamide]
IC50: 0.39 µM

CC(=O)N1CCN(c2ccc(NC(=O)c3coc4c3C(=O)NC(C)(C)C4)c(OC(C)C)n2)C[C@@H]1CO [Example 138, N-{6-[(3R)-4-acetyl-3-(hydroxymethyl)piperazin-1-yl]-2-isopropoxypyridin-3-yl}-6,6-dimethyl-4-oxo-4,5,6,7-tetrahydrofuro[3,2-c]pyridine-3-carboxamide]
IC50: 0.0063 µM

CCOc1nc(N2CCN(C(=O)OC(C)(C)C)CC2)ccc1NC(=O)c1coc2c1C(=O)NCC2 [Example 92, tert-butyl 4-(6-ethoxy-5-{[(4-oxo-4,5,6,7-tetrahydrofuro[3,2-c]pyridin-3-yl)carbonyl]amino}pyridin-2-yl)piperazine-1-carboxylate]
IC50: 0.0182 µM

CC1(C)CC(=O)c2c(C(=O)Nc3ccc(N4CCN(S(C)(=O)=O)CC4)cc3)coc2C1 [Example 152, 6,6-dimethyl-N-{4-[4-(methylsulfonyl)piperazin-1-yl]phenyl}-4-oxo-4,5,6,7-tetrahydro-1-benzofuran-3-carboxamide]
IC50: 0.0358 µM

CN1CCN(c2ccc(NC(=O)c3coc4c3C(=O)N(C)CC4)cc2)CC1 [Example 22, 5-methyl-N-[4-(4-methylpiperazin-1-yl)phenyl]-4-oxo-4,5,6,7-tetrahydrofuro[3,2-c]pyridine-3-carboxamide]
IC50: 0.2 µM

COc1cc(N2CCN(S(C)(=O)=O)CC2)ccc1NC(=O)c1coc2c1C(=O)NC(C)(C)C2 [Example 125, N-{2-methoxy-4-[4-(methylsulfonyl)piperazin-1-yl]phenyl}-6,6-dimethyl-4-oxo-4,5,6,7-tetrahydrofuro[3,2-c]pyridine-3-carboxamide]
IC50: 0.0359 µM

CCOc1nc(N2CCN(C(C)=O)CC2)ccc1NC(=O)c1coc2c1C(=O)C(c1cc(F)ccc1F)CC2 (stereo not shown) [Example 185, N-[6-(4-acetylpiperazin-1-yl)-2-ethoxypyridin-3-yl]-5-(2,5-difluorophenyl)-4-oxo-4,5,6,7-tetrahydro-1-benzofuran-3-carboxamide]
IC50: 0.0066 µM

CC(=O)N1CCN(c2ccc(NC(=O)c3coc4c3C(=O)NCC4)cc2)CC1 [Example 10, N-[4-(4-acetylpiperazin-1-yl)phenyl]-4-oxo-4,5,6,7-tetrahydrofuro[3,2-c]pyridine-3-carboxamide]
IC50: 0.0559 µM

CC(=O)N1CCN(c2ccc(NC(=O)c3coc4c3C(=O)NC(C)(C)C4)c(OC3COC3)n2)CC1 [Example 179, N-[6-(4-acetylpiperazin-1-yl)-2-(oxetan-3-yloxy)pyridin-3-yl]-6,6-dimethyl-4-oxo-4,5,6,7-tetrahydrofuro[3,2-c]pyridine-3-carboxamide]
IC50: 0.0049 µM

COc1nc(N2CCN(C(C)=O)CC2)ccc1NC(=O)c1coc2c1C(=O)CC1(CCOCC1)C2 [Example 110, N-[6-(4-acetylpiperazin-1-yl)-2-methoxypyridin-3-yl]-4-oxo-2′,3′,4,5′,6′,7-hexahydro-5H-spiro[1-benzofuran-6,4′-pyran]-3-carboxamide]
IC50: 0.0392 µM

COC[C@@H]1CN(c2ccc(NC(=O)c3coc4c3C(=O)NC(C)(C)C4)c(OCC(C)(C)O)n2)CCN1C(C)=O [Example 142, N-{6-[(3S)-4-acetyl-3-(methoxymethyl)piperazin-1-yl]-2-(2-hydroxy-2-methylpropoxy)pyridin-3-yl}-6,6-dimethyl-4-oxo-4,5,6,7-tetrahydrofuro[3,2-c]pyridine-3-carboxamide]
IC50: 0.0018 µM

CN1CCc2occ(C(=O)Nc3ccc(N4CCOCC4)cc3)c2C1=O [Example 25, 5-methyl-N-[4-(morpholin-4-yl)phenyl]-4-oxo-4,5,6,7-tetrahydrofuro[3,2-c]pyridine-3-carboxamide]
IC50: 0.112 µM

COCCOc1nc(N2CCN(C(C)=O)CC2)ccc1NC(=O)c1coc2c1C(=O)NCC2 [Example 20, N-[6-(4-acetylpiperazin-1-yl)-2-(2-methoxyethoxyl)pyridin-3-yl]-4-oxo-4,5,6,7-tetrahydrofuro[3,2-c]pyridine-3-carboxamide]
IC50: 0.0259 µM

O=C(Nc1ccc(N2CCOCC2)cc1)c1coc2c1C(=O)NCC2 [Example 3, N-[4-(morpholin-4-yl)phenyl]-4-oxo-4,5,6,7-tetrahydrofuro[3,2-c]pyridine-3-carboxamide]
IC50: 0.173 µM

CCOc1nc(N2CCN(C(C)=O)CC2)ccc1NC(=O)c1coc2c1C(=O)NC1(COC1)C2 [Example 114, N-[6-(4-acetylpiperazin-1-yl)-2-ethoxypyridin-3-yl]-4-oxo-4,7-dihydro-5H-spiro[furo[3,2-c]pyridine-6,3′-oxetane]-3-carboxamide]
IC50: 0.0072 µM

Cn1ncc2cc(NC(=O)c3coc4c3C(=O)CC(C)(C)C4)ccc21 [Example 146, 6,6-dimethyl-N-(1-methyl-1H-indazol-5-yl)-4-oxo-4,5,6,7-tetrahydro-1-benzofuran-3-carboxamide]
IC50: 0.0341 µM

CS(=O)(=O)NCCn1ncc2cc(NC(=O)c3coc4c3C(=O)NCC4)ccc21 [Example 58, N-(1-{2-[(methylsulfonyl)amino]ethyl}-1H-indazol-5-yl)-4-oxo-4,5,6,7-tetrahydrofuro[3,2-c]pyridine-3-carboxamide]
IC50: 0.105 µM

CCOc1nc(CC(=O)OC)ccc1NC(=O)c1coc2c1C(=O)NCC2 [Example 108, methyl(6-ethoxy-5-{[(4-oxo-4,5,6,7-tetrahydrofuro[3,2-c]pyridin-3-yl)carbonyl]amino}pyridin-2-yl)acetate]
IC50: 0.226 µM

O=C(Nc1nc2ccccc2s1)c1coc2c1C(=O)NCC2 [Example 47, N-(1,3-benzothiazol-2-yl)-4-oxo-4,5,6,7-tetrahydrofuro[3,2-c]pyridine-3-carboxamide]
IC50: 1.22 µM

COc1cc(N2CCN(S(=O)(=O)N(C)C)CC2)ccc1NC(=O)c1coc2c1C(=O)NCC2 [Example 81, N-{4-[4-(dimethylsulfamoyl)piperazin-1-yl]-2-methoxyphenyl}-4-oxo-4,5,6,7-tetrahydrofuro[3,2-c]pyridine-3-carboxamide]
IC50: 0.0658 µM

CC(C)Oc1nc(N2CCC[C@H](CO)C2)ccc1NC(=O)c1coc2c1C(=O)NC(C)(C)C2 [Example 137, N-{6-[(3S)-3-(hydroxymethyl)piperidin-1-yl]-2-isopropoxypyridin-3-yl}-6,6-dimethyl-4-oxo-4,5,6,7-tetrahydrofuro[3,2-c]pyridine-3-carboxamide]
IC50: 0.0133 µM
